Assays:
[1] = tested on: E. coli Tat machinery (IMVs containing overproduced TatABC); assay: In vitro Tat transport assay of pre-SufI into IMVs, ATP as energy source; format: biochemical, Escherichia coli; details: hit compound 100 μM
Protocol: (§1) To directly test for inhibition of Tat transport, a gel-based in vitro Tat transport assay was performed using pre-SufI, an authentic Tat precursor protein [7]. In short, this assay consists of incubating a Tat substrate and a Δψ-generating energy source with inverted membrane vesicles (IMVs) containing overproduced TatABC, digesting remaining external protein with a protease, and then analyzing via SDS-PAGE. This assay was run twice using NADH and ATP (if warranted) as energy sources to generate the necessary Δψ. NADH generates a Δψ using respiratory proteins (i.e., the NADH dehydrogenase and cytochrome bo3 ubiquinol oxidase complexes) and ATP generates a Δψ by reversal of ATP synthase. A true Tat inhibitor would survive both assays. In contrast, a respiration inhibitor is expected to reduce Tat transport when only one of the two energy sources is used (except for an ionophore).
(§2) Fig 8 Effect of Hits from the Local HTS on In Vitro Tat Transport. (A) Tat transport assays of pre-SufI using NADH to generate a Δψ. […] Samples were treated with the protease proteinase K, run on SDS-PAGE, and analyzed by in-gel fluorescence imaging. Assays were run in duplicate. Band intensity corresponds to the amount of protein transported into the IMV lumen. The following 7 compounds survived this screen: 1^JS, 51^JS, 55^JS, 111^JS, 181^JS, 202^JS, and 140^JS (boxed in red). (B) Tat transport assays of pre-SufI using ATP to generate a Δψ. All 7 compounds surviving the screen in (A) were tested using a Tat transport assay performed identically to those in (A) except that ATP (1 mM) was used in place of NADH. […]
(§3) Isolation of inverted membrane vesicles (IMVs), Western blot analyses and purification of pre-SufI-IAC were performed as described previously. […] The presence of a Δψ was determined by measuring oxonol VI fluorescence in presence of Tat^+ IMVs (A280 = 0.5), as described previously, except that the translocation buffer lacked BSA. Steady-state fluorescence spectra and fluorescence intensities of whole cells producing mCherry proteins were determined with an SLM-8100 spectrofluorometer.

[2] = tested on: E. coli Tat machinery (IMVs containing overproduced TatABC); assay: In vitro Tat transport assay of pre-SufI into IMVs, NADH as energy source; format: biochemical, Escherichia coli; details: out of 22 independent assays by three different people
Protocol: as §1
Fig 8 Effect of Hits from the Local HTS on In Vitro Tat Transport. (A) Tat transport assays of pre-SufI using NADH to generate a Δψ. Inverted membrane vesicles (IMVs; A280 = 5.0), the fluorescent substrate pre-SufI-IAC^Atto565 (90 nM), and NADH (4 mM) were incubated at 37°C for 30 min with DMSO (control) or with hit compound (20 μM). Samples were treated with the protease proteinase K, run on SDS-PAGE, and analyzed by in-gel fluorescence imaging. Assays were run in duplicate. Band intensity corresponds to the amount of protein transported into the IMV lumen. The following 7 compounds survived this screen: 1^JS, 51^JS, 55^JS, 111^JS, 181^JS, 202^JS, and 140^JS (boxed in red). (B) Tat transport assays of pre-SufI using ATP to generate a Δψ. All 7 compounds surviving the screen in (A) were tested using a Tat transport assay performed identically to those in (A) except that ATP (1 mM) was used in place of NADH. Compound 55^JS was eliminated by this assay—the other 6 compounds survived (boxed in red). (C) Chemical structure of compound 55^JS, N-(4,7-Dioxo-4,7-dihydro-2,1,3-benzoxadiazol-5-yl)acetamide.
Isolation of inverted membrane vesicles (IMVs), Western blot analyses and purification of pre-SufI-IAC were performed as described previously. Western blots were performed using rabbit anti-mCherry antibodies (1:10,000 dilution) in the presence of 0.1% Triton X-100 and 0.1% Tween 20. The pre-SufI-IAC protein was labeled with Atto565 maleimide, and the resultant fluorescent protein, pre-SufI-IAC^Atto565, was used as a substrate for the in vitro Tat transport assays (A280 = 5.0), as described previously. The presence of a Δψ was determined by measuring oxonol VI fluorescence in presence of Tat^+ IMVs (A280 = 0.5), as described previously, except that the translocation buffer lacked BSA. Steady-state fluorescence spectra and fluorescence intensities of whole cells producing mCherry proteins were determined with an SLM-8100 spectrofluorometer.
Supplementary file pone.0149659.s003.tiff: S3 Fig IC50's for Hit Compound 181^JS. (A) The total cellular mCherry fluorescence (live cell assay; n = 1), (B) the in vitro NADH-dependent Tat transport efficiency of pre-SufI (n = 1), and (C) the maximum transmembrane electrical potential gradient (n = 1) were measured for a range of concentrations of compound 181^JS (S2E Fig). (D) SDS-PAGE gel showing in-gel fluorescence data used in (B). For (A), cells expressing spTorA-mCherry-SsrA were grown under Tat^++ conditions in a 384-well plate in the presence of 0, 0.08, 0.15, 0.3, 0.63, 1.25, 2.5, 5, 10, 20, or 40 μM compound 181^JS, as described for the HTS assay (see Methods). For (B) and (C), IMVs were incubated with the same concentrations of compound 181^JS prior to initiation of Tat transport and Δψ generation by the addition of NADH, as described previously. The red curves are best-fits using y = d + (100-d)/(1+(x/IC50)^b), where b is a slope factor and d is the high concentration asymptote. (TIFF) Click here for additional data file.

[3] = target: E. coli Tat machinery (IMVs containing overproduced TatABC) (Escherichia coli, UniProt P69423+P69425+P69428); assay: In vitro Tat transport assay of pre-SufI into IMVs, ATP as energy source; format: biochemical; details: hit compound 100 μM
E. coli Tat machinery (IMVs containing overproduced TatABC) (Escherichia coli, UniProt P69423+P69425+P69428), sequence (P69423 2-258): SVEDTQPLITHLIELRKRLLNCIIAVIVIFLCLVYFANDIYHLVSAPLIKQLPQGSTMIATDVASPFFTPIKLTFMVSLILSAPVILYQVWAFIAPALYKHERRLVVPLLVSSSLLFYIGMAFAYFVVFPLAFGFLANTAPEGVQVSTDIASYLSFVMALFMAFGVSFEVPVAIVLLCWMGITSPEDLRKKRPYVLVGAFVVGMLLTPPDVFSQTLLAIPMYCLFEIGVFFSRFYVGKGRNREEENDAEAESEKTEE
E. coli Tat machinery (IMVs containing overproduced TatABC) (Escherichia coli, UniProt P69423+P69425+P69428), sequence (P69425 whole entry): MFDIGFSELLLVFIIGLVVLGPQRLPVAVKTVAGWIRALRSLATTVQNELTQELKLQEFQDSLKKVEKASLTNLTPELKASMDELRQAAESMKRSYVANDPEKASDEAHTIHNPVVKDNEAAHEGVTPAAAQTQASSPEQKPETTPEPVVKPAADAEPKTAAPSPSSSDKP
E. coli Tat machinery (IMVs containing overproduced TatABC) (Escherichia coli, UniProt P69423+P69425+P69428), sequence (P69428 whole entry): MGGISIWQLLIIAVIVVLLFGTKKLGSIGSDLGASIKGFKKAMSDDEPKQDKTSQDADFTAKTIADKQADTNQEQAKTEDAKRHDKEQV
Protocol: as §1, §2, §3

Row | SMILES | outcome of ATP-dependent in vitro Tat transport screen (survival = visible inhibition of Tat transport) [1] | number of assays in which Tat transport was inhibited [2] [times] | outcome of ATP-dependent in vitro Tat transport screen (survival = visible inhibition of Tat transport) [3]
1 | Oc1cc(Cl)ccc1Oc1ccc(Cl)cc1Cl [Compound 18^NIH, 5-Chloro-2-(2,4-dichlorophenoxy)phenol] | survived | 12 | 
2 | N#CC1c2ccccc2-n2nncc2CN1Cc1cc(Cl)cc(Cl)c1 (stereo not drawn) [21^NIH, 5-[(3,5-dichlorophenyl)methyl]-4,6-dihydrotriazolo[1,5-a][1, 4]benzodiazepine-6-carbonitrile] |  |  | survived
